Target: Type-2 angiotensin II receptor (Sus scrofa)
Experiment: Displacement of [125I]-Ang II from pig uterus membrane angiotensin II type 2 (AT2) receptor

SMILES	Ki [nM]
CCCCOC(=O)NS(=O)(=O)c1sc(CC(C)C)cc1-c1ccc(CC#N)cc1 [butyl (5-isobutylthien-2-yl)sulfonylcarbamate derivative]	70
CCCCOC(=O)NS(=O)(=O)c1sc(CC(C)C)cc1-c1ccc(Cn2c(CC)nc3ccccc32)cc1 [butyl (5-isobutylthien-2-yl)sulfonylcarbamate derivative]	3.2
CCCCOC(=O)NS(=O)(=O)c1sc(CC(C)C)cc1-c1ccc(Cn2ccnc2C)cc1 [butyl (5-isobutylthien-2-yl)sulfonylcarbamate derivative]	0.5
CCCCOC(=O)NS(=O)(=O)c1sc(CC(C)C)cc1-c1ccc(Cn2cnc3ccccc32)cc1 [butyl (5-isobutylthien-2-yl)sulfonylcarbamate derivative]	4
CCCCOC(=O)NS(=O)(=O)c1sc(CC(C)C)cc1-c1ccc(Cn2cnc3cccnc32)cc1 [butyl (5-isobutylthien-2-yl)sulfonylcarbamate derivative]	7.1

Reference: BindingDB's records for doi:10.1021/jm049715t (Uppsala University, 2004)
